# According to patent publication US8916540B2, “Antibiotic compositions and related screening methods” (Academia Sinica, priority 2008, dated 2014):
# Read-outs that look alike come from different tables or passages of the source.
# Assays:
# Salmonella enterica [1] = assay: Minimal inhibitory concentration (MIC) determination; type: cell-based
# Shigella flexneri [2] = assay: as above; type: cell-based
# [3] = target: T1, E. coli PBP1b TG+TP (residues 88-844) (Escherichia coli, UniProt P02919); assay: SPR moenomycin binding to truncated PBP1b variant; conditions: PBP without the transmembrane domain
# T1 construct: TG+TP (residues 88-844); His tag (implied by nickel chelation chromatography); made in house; host or cells: E. coli (pET vectors)
# T1 sequence (P02919 88-844): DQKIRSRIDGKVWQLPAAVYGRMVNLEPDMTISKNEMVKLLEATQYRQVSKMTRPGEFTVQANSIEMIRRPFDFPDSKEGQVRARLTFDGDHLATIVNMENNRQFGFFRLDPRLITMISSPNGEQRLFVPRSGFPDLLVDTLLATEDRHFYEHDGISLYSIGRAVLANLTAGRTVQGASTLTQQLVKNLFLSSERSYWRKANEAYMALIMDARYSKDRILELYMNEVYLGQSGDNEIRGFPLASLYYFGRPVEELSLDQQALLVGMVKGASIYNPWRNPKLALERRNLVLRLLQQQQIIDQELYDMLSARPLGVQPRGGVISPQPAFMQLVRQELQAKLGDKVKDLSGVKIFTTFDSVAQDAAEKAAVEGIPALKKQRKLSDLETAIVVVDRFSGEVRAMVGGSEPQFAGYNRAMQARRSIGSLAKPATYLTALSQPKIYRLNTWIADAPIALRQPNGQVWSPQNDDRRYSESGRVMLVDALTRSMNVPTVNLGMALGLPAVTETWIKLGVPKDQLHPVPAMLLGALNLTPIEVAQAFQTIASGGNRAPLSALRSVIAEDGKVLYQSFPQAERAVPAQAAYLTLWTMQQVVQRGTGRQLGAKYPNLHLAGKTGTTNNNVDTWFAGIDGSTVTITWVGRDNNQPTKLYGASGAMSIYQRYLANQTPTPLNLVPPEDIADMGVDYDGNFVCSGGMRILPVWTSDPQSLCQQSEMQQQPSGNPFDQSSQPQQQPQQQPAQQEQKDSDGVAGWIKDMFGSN
# Text: . Five E. coli PBP1b variants were expressed and purified: 1) full-length protein containing transmembrane, transglycosylase and transpeptidase domains (TM+TG+TP), 2) TG+TP, 3) TM+TG, 4) TG, and 5) TP (FIG. 1B).
# . FIG. 1(B) is a schematic representation of the PBP variants used for moenomycin binding studies. The full-length PBP (TM+TG+TP) contains amino acid residues 1-844 of the E. coli PBP1b P02919. TG+TP (residues 88-844), TM+TG (residues 1-409), TG (residues 195-409), and TP (residues 444-736) are truncated variants with the part of the full-length PBP1b. The moenomycin binding constant (KD) for these variants were determined using SPR.
# After immobilization of the target proteins on the sensor chip, different concentrations of moenomycin were passed through the surface and the binding affinities were determined. […].
# Purified PBP and its variants were immobilized onto CM3 chip (GE healthcare, Uppsala, Sweden) to about 1,500˜2,000 RU via amine-coupling method. […]. Immobilization and data collection were performed with BIAcore T100 (GE Healthcare, Uppsala, Sweden) at 25° C.
# Klebsiella pneumoniae [4] = assay: Minimal inhibitory concentration (MIC) determination; type: cell-based
# Enterococcus faecium = conditions: literature citation 10; cited from earlier work
# Pseudomonas aeruginosa [5] = conditions: literature citation 28; cited from earlier work
# Salmonella enterica [6] = conditions: literature citation 38; cited from earlier work
# Klebsiella pneumoniae [7] = conditions: literature citation 28; cited from earlier work
# Escherichia coli = assay: Minimal inhibitory concentration (MIC) determination; type: cell-based
# Enterococcus faecalis [8] = conditions: literature citation 31; cited from earlier work
# Clostridium difficile [9] = assay: Minimal inhibitory concentration (MIC) determination; type: cell-based
# Shigella flexneri [10] = conditions: literature citation 28; cited from earlier work
# Helicobacter pylori = conditions: literature citation 29; cited from earlier work
# Clostridium difficile [11] = conditions: literature citation 30; cited from earlier work
# Bordetella pertussis = assay: Minimal inhibitory concentration (MIC) determination; type: cell-based
# Citrobacter freundii = conditions: literature citation 28; cited from earlier work
# Enterococcus faecalis [12] = assay: Minimal inhibitory concentration (MIC) determination; type: cell-based
# Protocol: (§1) The minimal inhibitory concentration (MIC) of tested compounds was determined following the NCCLS standard. The experiments were conducted in 96-well microtiter plates using two-fold dilutions in Muller-Hilton broth with (Streptococcus pneumonia) or without blood (Bacillus subtilis, Enterococcus faecalis, Staphylococcus aureus). Exponentially growing cells at 5×10^5 cells/ml were incubated with test compounds at various concentrations.
# Staphylococcus aureus = assay: as above; type: cell-based
# Protocol: as §1
# Bacillus subtilis = assay: as above; type: cell-based
# Protocol: as §1
# Streptococcus pneumoniae = assay: as above; type: cell-based
# Protocol: as §1
# Pseudomonas aeruginosa [13] = assay: as above; type: cell-based
# [14] = target: PBP2a from Enterococcus faecalis; assay: SPR moenomycin binding to immobilized full-length PBP; conditions: steady-state affinity, average values, read-out: SPR_KD
substance,measurement,setting,value
Moenomycin A [Compound 1],MIC,Salmonella enterica [1],160 µM
same,MIC,Shigella flexneri [2],40 µM
same,moenomycin binding activity of TG+TP variant relative to full-length PBP1b (fold lower),[3],about 5 fold
same,moenomycin binding activity of TG+TP variant relative to full-length PBP1b (fold lower),[3]; listed as Moe A,decreased five-fold
same,MIC,Klebsiella pneumoniae [4],80 µM
same,Reported values MIC,Enterococcus faecium,>40.5 µM
same,Reported values MIC,Pseudomonas aeruginosa [5],55 to 110 µM
same,Reported values MIC,Salmonella enterica [6],13.75 to 110 µM
same,Reported values MIC,Klebsiella pneumoniae [7],13.75 to 27.5 µM
same,MIC,Escherichia coli,80 µM
same,Reported values MIC,Enterococcus faecalis [8],0.1 µM
same,MIC,Clostridium difficile [9],>160 µM
same,Reported values MIC,Shigella flexneri [10],27.5 to 110 µM
same,Reported values MIC,Helicobacter pylori,1.3 µM
same,Reported values MIC,Clostridium difficile [11],220 to 440 µM
same,MIC,Bordetella pertussis,0.011 to 0.021 µM
same,Reported values MIC,Citrobacter freundii,352 µM
same,MIC,"Enterococcus faecalis [12]; E. faecalis ATCC29212, Muller-Hilton broth, 18 h to 24 h, 37° C., read-out: MIC E. faecalis (ATCC29212)",0.04 µM
same,MIC,Enterococcus faecalis [12]; Enterococcus faecalis (Table 1),0.075 to 0.3 µM
same,MIC,"Staphylococcus aureus; S. aureus ATCC29213, Muller-Hilton broth, 18 h to 24 h, 37° C., read-out: MIC S. aureus (ATCC29213)",<0.01 µM
same,MIC,Staphylococcus aureus; Staphylococcus aureus (Table 1),0.075 µM
same,MIC,"Bacillus subtilis; B. subtilis ATCC23857, Muller-Hilton broth, 18 h to 24 h, 37° C., read-out: MIC B. subtilis (ATCC23857)",0.33 µM
same,MIC,Bacillus subtilis; Bacillus subtilis (Table 1),0.3 to 0.6 µM
same,MIC,"Streptococcus pneumoniae; S. pneumoniae ATCC49619, Muller-Hilton broth with blood, 18 h to 24 h, 37° C., read-out: MIC S. pneumoniae (ATCC49619)",0.33 µM
same,MIC,Streptococcus pneumoniae; Streptococcus pneumoniae (Table 1),0.625 µM
same,MIC,Pseudomonas aeruginosa [13],40 µM
same,Kd,[14],0.619 µM
